Laboratory results taken from patent publication US9709486B2, “Method of dynamic spectroscopy under physiological conditions” (INOVIEM SCIENTIFIC, priority 2012, dated 2017).

Tests used:
[1] = tested on: rat hypothalamus extracts; assay: Dynamic NIR spectroscopy of rat hypothalamus extracts in presence of bithionol; settings: FIG. 11
Text: Sample buffer constituted the blank.

[2] = tested on: crude membrane proteins from each patient's PBMC; assay: Dynamic NIR spectroscopy of crude PBMC membrane proteins of IBD patients in absence and presence of infliximab; set-up: species or system human; settings: infliximab 10e-6M, samples of patients responding to infliximab, 850-1450 nm, FIG. 17
Protocol: All the patients have a treatment: infliximab (Remicad®). infliximab is an anti-TNFalpha. 50 patients (women=16, men=34) with an average age of 43±8 year seeking medical assistance at Erlangen hospital day-care unit are taking part to the study. Patient's whole blood is collected using sodium citrate vacutainer tubes (5-10 ml/patient). Samples are blinded.
Peripheral blood mononuclear cells (PBMCs) are separated and isolated on ficoll gradient from blood samples, and then frozen. Crude PBMC membranes are prepared in physiological conditions without addition of any protease inhibitor or anti-phosphatase or lyses buffer. PBMC samples were subjected to three fast deep freezing (liquid nitrogen, slow thaw at 4° C., cycle. Determination of protein concentration: total protein concentration was determined using BCA assay (BCA Protein Assay Reagent, bicinchoninic acid). […]
One variable is analyzed in presence and in absence of infliximab: Compare Individual Macromolecular Volume (INV), that is defined as the total macromolecular spectral change from −37° C. to 37° C., due to the macromolecular conformational changes in absence and presence of a drug, expressed as change in absorbance as a function of wavelength and temperature. […]
Results are analyzed based on their spectral fingerprints going from −37° C. to 37° C. and compared to identify responders and non-responders patients.

Row | Compound | effect on protein assemblies / protein conformation (water molecules spectra in NIR wavelength) ([1]; 1 μM test molecule, extract 10^−6 mg/ml, −37° C. to 37° C.) | reversibility of induced conformation changes ([1]; 1 μM, visible in low temperature (most at −37° C.)) | Individual Macromolecular Volume (INV), total macromolecular spectral change from −37° C. to 37° C. [2]
1 | Oc1c(Cl)cc(Cl)cc1Sc1cc(Cl)cc(Cl)c1O [bithionol] | disturbs the protein assemblies | reversible as the temperature rises | –
2 | infliximab | – | – | increases unanimously
